Reference: PubChem BioAssay (NCI)
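48-hour exposure; five concentrations; linearly interpolated endpoints. TGI: total growth inhibition.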

Legend:
Test in all cases: inhibition of tumour cell growth, NCI panel, 48 h
[1] = test system: ACHN renal
[2] = test system: CAKI-1 renal
[3] = test system: HT29 colon
[4] = test system: M14 melanoma
[5] = test system: NCI-H226 lung
[6] = test system: NCI-H23 lung
[7] = test system: OVCAR-3 ovarian
[8] = test system: OVCAR-8 ovarian
[9] = test system: SK-MEL-28 melanoma
[10] = test system: SK-MEL-5 melanoma

Row | Compound | TGI [1] [µM] | TGI [2] [µM] | TGI [3] [µM] | TGI [4] [µM] | TGI [5] [µM] | TGI [6] [µM] | TGI [7] [µM] | TGI [8] [µM] | TGI [9] [µM] | TGI [10] [µM]
1 | O=c1[nH]nc(-c2ccccc2)n1O | > 100 | > 100 | > 100 | > 100 | > 100 | > 100 | > 100 | > 100 | > 100 | > 100
2 | Cn1c(=O)n2n(c1=O)C(C)(C13CC4CC(CC(C4)C1)C3)C13CC4CC(CC1C4)CC23 (stereo not given) | > 100 | > 100 | > 100 | > 100 | > 100 | > 100 | > 100 | > 100 | > 100 | > 100
3 | N#Cc1nc(C#N)n(S(=O)(=O)c2ccccc2)c1NS(=O)(=O)c1ccccc1 | > 100 | > 57.7 | > 100 | > 100 | > 100 | > 100 | > 100 | > 100 | > 100 | > 100
4 | COc1ccc(C(=O)/C=C/c2ccc(OCC#N)cc2)cc1 | > 100 | 42 | > 100 | 42 | 88.8 | 49.6 | > 100 | > 100 | 32.9 | 28.4
5 | O=c1[nH]c2nc3ccccc3c(=O)n2/c1=C/c1ccco1 | > 100 | > 100 | > 100 | > 100 | > 100 | > 100 | > 100 | > 100 | > 100 | > 100
6 | C=C(C)[C@@H]1CC[C@]2(C(=O)OC)CC[C@]3(C)[C@H](CC[C@@H]4[C@@]5(C)CC[C@H](O)C(C)(C)[C@@H]5CC[C@]43C)[C@@H]12 | 32.9 | 39.6 | 60 | > 100 | 44.4 | > 100 | 40.1 | 51.2 | 47.2 | 41.3
7 | N#CCCC1(CCC#N)CCCCCCCCC(CCC#N)(CCC#N)C(O)C1O (stereo not given) | > 100 | > 100 | > 100 | > 100 | > 100 | > 100 | > 100 | > 100 | > 100 | > 100
8 | CN(CCCNC(=O)c1cc(-c2ccccc2)nc2ccccc12)CCCNC(=O)c1cc(-c2ccccc2)nc2ccccc12 | 7.25 | 22.7 | 3.46 | 3.17 | 10.7 | 16.1 | 9.14 | 5.65 | 3.27 | 3.08
9 | CCC1C(c2ccccc2O)c2cc3c(cc2OC1N1CCOCC1)OCO3 (stereo not given) | 26 | 34.1 | 26.4 | 30.6 | 36.3 | 34.5 | 25.4 | 46.2 | 33.9 | 30.5
10 | c1ccc(CC2COC(c3cccs3)=N2)cc1 (stereo not given) | > 100 | > 100 | > 100 | > 100 | > 100 | > 100 | > 100 | > 100 | > 100 | > 100
11 | O=C(c1ccco1)N(C(=O)N1CCN(c2ccccc2)CC1)S(=O)(=O)c1ccccc1 | 62.7 | 57.8 | > 100 | 60.4 | > 100 | 53.2 | > 100 | > 100 | > 100 | 68.3
12 | CCCCNc1nc(NC2OCC(OC(C)=O)C(OC(C)=O)C2OC(C)=O)c(N=O)c(=O)n1C (stereo not given) | > 10 | > 10 | > 10 | > 10 | > 10 | > 10 | > 10 | > 10 | > 10 | > 10
13 | CCOC(=O)Cn1nnc2ccc(Nc3nc4ccccc4nc3-c3ccccc3)cc21 | > 100 | > 100 | > 100 | > 100 | > 100 | > 100 | > 100 | > 100 | > 100 | > 100
14 | Nc1nc2c(C(=O)O)c3ccc([N+](=O)[O-])cc3c(=O)n2c2ccccc12 | > 100 | > 100 | > 100 | 64.2 | 53.9 | 64.9 | 57 | 34.8 | > 100 | > 100
15 | c1ccc(N=C2c3ccsc3C(=Nc3ccccc3)c3ccsc32)cc1 | 3.04 | 10.2 | 13.7 | 2.32 | 11.4 | 3.03 | 6.55 | 5.68 | 3.97 | 2.35
16 | CCCCCCCCCCCC[N+](CCCCCCCCCCCC)=C1SCCS1 | 25.1 | 26.1 | 12.8 | 22.3 | 28.2 | 9.05 | 19.8 | 8.33 | 22.9 | 18.5
17 | CC1(C)CC(=O)c2c(nc3c4c([nH]c(-c5ccc(Br)cc5)c24)CC(C)(C)C3)C1 | > 100 | > 100 | > 100 | > 100 | > 100 | > 100 | > 100 | > 100 | > 100 | > 100
18 | COc1cccc(/N=N/C(=NNC(=O)c2ccc(C)cc2)c2ccc(N(C)C)cc2)c1 | > 100 | > 100 | > 100 | > 100 | > 100 | > 100 | > 100 | > 100 | > 100 | > 100
19 | O=C1c2c(Br)sc(Br)c2[C@@H](NC(=O)C(F)(F)F)C1Br (stereo not given in full) | 6.1 | 8.82 | 5.77 | 6.23 | 15.1 | 7.14 | 9.99 | 7.73 | 8.51 | 7.88
20 | COc1ccc(C2=NOC(N)(c3ccc(OC)cc3)C2)cc1 (stereo not given) | > 100 | > 100 | > 100 | > 100 | > 100 | > 100 | > 100 | > 100 | > 100 | > 100
21 | Nc1ccc(Nc2cc(=O)[nH]c(=O)[nH]2)cc1Cl | > 100 | > 100 | > 100 | > 100 | > 100 | > 100 | > 100 | > 100 | > 100 | > 100
22 | Clc1ccc2oc(CCc3ccccc3)nc2c1 | > 100 | > 100 | > 100 | > 100 | > 100 | > 100 | 85.1 | > 100 | > 100 | 55.4
23 | COC(=O)C1CCC(=O)N1C(c1ccc2c(c1)OCO2)c1cc(OC)c(OC)c(OC)c1 (stereo not given) | > 100 | > 100 | > 100 | > 100 | > 100 | > 100 | > 100 | > 100 | > 100 | > 100
24 | O=C(O)c1cc(CCc2cc(O)ccc2O)ccc1O | > 100 | > 100 | > 100 | > 100 | > 100 | > 100 | > 100 | > 100 | > 100 | > 100
25 | CCN(CC)c1nnc(CCCCCCCCc2nnc(N(CC)CC)o2)o1 | > 100 | > 100 | > 100 | > 100 | > 100 | > 100 | > 100 | > 100 | > 100 | > 100
26 | NC(Cc1ccc(S(=O)(=O)O)cc1)C(=O)NC(Cc1ccc(S(=O)(=O)O)cc1)C(=O)NC(Cc1ccc(S(=O)(=O)O)cc1)C(=O)NC(Cc1ccc(S(=O)(=O)O)cc1)C(=O)O (stereo not given) | > 100 | > 100 | > 100 | > 100 | > 100 | > 100 | > 100 | > 100 | > 100 | > 100
